We go through ten compounds from ChEMBL document CHEMBL1201862, “PubChem BioAssay data set” (2004).

SMILES strings stand for the structures.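 Method: 48-hour compound exposure of cells in 96-well plates, five concentrations, linear interpolation of endpoints. Abbreviation: GI50, concentration required for 50% inhibition of growth.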 Activity calls are given as the source filed them. Rule as the data show it: active = GI50 up to about 1.1 µM and inactive = higher.

Common to all, as to assay: NCI anticancer screen, dose series, 48 h
Test [1] has as its system Hs-578T.
In test [2] the test system is OVCAR-3.
In test [3] the test system is M14.
The subject of test [4] is RXF 393.
Test [5] deals with ACHN.
Test [6] has as its system MCF7.
In test [7] the test system is OVCAR-4.
The subject of test [8] is SN12C.
Test [9] has as its system NCI-H23.
Test [10] concerns SF-268.
The test system of test [11] is A498.
Test [12] concerns K562.
Test [13] has as its system KM12.
The test system of test [14] is SW-620.
Test [15] concerns EKVX.
Test [16] concerns HL-60.
For test [17], the system named is SNB-19.
Test [18] has as its system OVCAR-8.
In test [19] the test system is SK-MEL-2.
Test [20] has as its system Malme-3M.

Turning to `CN1CCC23c4c5ccc(Oc6nnnn6-c6ccccc6)c4OC2c2[nH]c4ccccc4c2CC3(O)C1C5` (stereo not drawn), the GI50 was 9.25 µM (inactive) in test [1]; 9.4 µM (inactive) in [2]; 1.85 µM (inactive) in test [3]; 2.28 µM (inactive) in test [4]; 1.74 µM (inactive) in test [5]; 2.27 µM (inactive) in [6]. Also, the GI50 in test [7] is 2.54 µM (inactive); in [8] it was 2.75 µM (inactive); in test [9] it was 16.3 µM (inactive); in test [10], 6.89 µM (inactive); in test [11] it was 2.4 µM (inactive); in test [12], 1.81 µM (inactive). For the same compound, the GI50 in test [13] is 2.82 µM (inactive); in [14], 2.44 µM (inactive); in test [15], 9.64 µM (inactive); in test [16], 1.81 µM (inactive); in [17], 7.66 µM (inactive); in [18], 2.86 µM (inactive). The results for the GI50 in test [19] and in [20] were 1.78 µM (inactive) and 1.67 µM (inactive), respectively.

Regarding `COC(=O)/C=C\C(C#N)(C#N)/N=C/c1sccc1C`, the GI50 is 7.78 µM (inactive) in test [1]; 5.05 µM (inactive) in test [2]; 2.28 µM (inactive) in test [3]; 2 µM (inactive) in [4]; 1.87 µM (inactive) in [5]; 1.56 µM (inactive) in [6]. Also, the GI50 in [7] is 4.53 µM (inactive); in test [8], 8.59 µM (inactive); in test [9] it was 7.03 µM (inactive); in [10], 12.3 µM (inactive); in test [11], 14.8 µM (inactive); in test [12], 3.3 µM (inactive). Also, the GI50 in test [13] is 16.2 µM (inactive); in test [14], 1.58 µM (inactive); in test [15], 3.59 µM (inactive); in test [16], 1.88 µM (inactive); in [17] it was 17.3 µM (inactive); in test [18], 2.47 µM (inactive). For the same compound, the values for the GI50 in [19] and in [20] were 15.8 µM (inactive) and 3.18 µM (inactive), respectively.

For the compound `Cc1ccc([C@H]2CC(=O)C[C@H](c3ccc(C)cc3)C23C(=O)c2ccccc2C3=O)cc1`, the GI50 in test [1] was 19.9 µM (inactive); in [2] it was 41.9 µM (inactive); in test [3] it was 27.8 µM (inactive); in [4] it was 19.1 µM (inactive); in test [5], 63.4 µM (inactive); in test [6], 17 µM (inactive). For the same compound, the GI50 in test [7] was 18.6 µM (inactive); in test [8], 48.4 µM (inactive); in [9] it was > 100 µM (inactive); in test [10], 23 µM (inactive); in [11] it was > 100 µM (inactive); in test [12] it was 23.3 µM (inactive). For the same compound, the GI50 in test [13] was > 100 µM (inactive); in test [14], 94.6 µM (inactive); in test [15], > 100 µM (inactive); in test [16] it was 11 µM (inactive); in test [17], 26.9 µM (inactive); in [18] it was 31 µM (inactive). The GI50 in test [19] is 31.2 µM (inactive); in [20] it was 46.7 µM (inactive).

`O=[N+]([O-])c1cccc2nc3ccccc3c(NCCCCCNc3c4ccccc4nc4cccc([N+](=O)[O-])c34)c12`: the GI50 in [1] is 0.0879 µM (active); in test [2], 0.075 µM (active); in test [3], 0.0607 µM (active); in [4], 0.0302 µM (active); in test [5], 0.0162 µM (active); in test [6], 0.0161 µM (active). Further, the GI50 was 0.153 µM (active) in test [7]; 0.0151 µM (active) in [8]; 0.0412 µM (active) in test [9]; 0.0313 µM (active) in test [10]; 0.111 µM (active) in [11]; 0.00466 µM (active) in test [12]. Besides, the GI50 in test [13] was 0.0461 µM (active); in test [14], 0.0158 µM (active); in test [15] it was 0.133 µM (active); in [16], 0.00745 µM (active); in test [17] it was 0.116 µM (active); in [18], 0.0492 µM (active). Besides, the GI50 in [19] was 0.159 µM (active); in test [20], 0.129 µM (active).

As for `CN(C)C(=S)SN(C)C(=O)Nc1ccccc1`, the GI50 was > 100 µM (inactive) in test [1]; 0.618 µM (active) in test [2]; 7.46 µM (inactive) in test [3]; 1.18 µM (inactive) in [4]; 47.2 µM (inactive) in test [5]; 2.67 µM (inactive) in test [6]. The GI50 in test [7] was 5.06 µM (inactive); in test [8], 41.2 µM (inactive); in test [9] it was 7.4 µM (inactive); in test [10] it was 38.4 µM (inactive); in [11] it was 3.9 µM (inactive); in test [12], 0.998 µM (active). The GI50 was 12.1 µM (inactive) in test [13]; 7.28 µM (inactive) in test [14]; > 86.9 µM (inactive) in test [15]; 2.86 µM (inactive) in test [16]; 80.2 µM (inactive) in test [17]; 35.3 µM (inactive) in test [18]. Also, the GI50 in test [19] was 39.4 µM (inactive); in [20], 16.7 µM (inactive).

Take `COC(=O)C1(C#N)C(C)(C)N=C(c2ccccc2)C12CCCCC2` (stereo not drawn): the GI50 in test [1], in [2], in test [3], in test [4], in test [6] and in test [7] was > 100 µM (inactive) in each case. Moreover, the GI50 is > 100 µM (inactive) in test [8]; > 100 µM (inactive) in test [9]; > 100 µM (inactive) in test [10]; > 100 µM (inactive) in test [11]; 59.7 µM (inactive) in test [12]; > 100 µM (inactive) in [13]. The GI50 in test [14] was > 100 µM (inactive); in test [15], > 100 µM (inactive); in [16] it was 45.4 µM (inactive); in [17], > 100 µM (inactive); in test [18] it was > 100 µM (inactive); in test [19], > 100 µM (inactive). Further, the GI50 in [20] was > 100 µM (inactive).

In the case of `CCOC(=O)C(C(=O)OCC)=C1SC(=N\c2ccccc2)/C(=N/c2ccccc2)N1c1ccccc1`, the GI50 in [1] was 90.8 µM (inactive); in [2], 35.8 µM (inactive); in test [4], 28.2 µM (inactive); in [5] it was 64 µM (inactive); in test [6], 75.3 µM (inactive); in [8] it was > 100 µM (inactive). The GI50 is > 100 µM (inactive) in [9]; 48.3 µM (inactive) in [10]; > 100 µM (inactive) in [11]; 4.48 µM (inactive) in test [12]; > 100 µM (inactive) in [13]; > 100 µM (inactive) in test [15]. Further, the GI50 in test [16], in test [17], in test [18], in [19] and in test [20] was > 100 µM (inactive) in each case.

`O=c1[nH]c2[nH]c(-c3ccc(Br)cc3)cc2c2ccccc12`: the GI50 in [1] is 15.1 µM (inactive); in test [2], > 100 µM (inactive); in test [4] it was 24.7 µM (inactive); in test [5], 66.8 µM (inactive); in test [6], > 100 µM (inactive); in test [7], 24.7 µM (inactive). Also, the GI50 in test [8] is 41.4 µM (inactive); in [9], > 100 µM (inactive); in [10], 86.9 µM (inactive); in test [11], > 100 µM (inactive); in test [12], 27.1 µM (inactive); in test [13] it was > 100 µM (inactive). The GI50 is > 100 µM (inactive) in test [14]; 5.58 µM (inactive) in test [15]; 13.5 µM (inactive) in test [16]; 29.4 µM (inactive) in test [17]; 23.3 µM (inactive) in test [18]; > 100 µM (inactive) in test [19]. Besides, the GI50 in test [20] was > 100 µM (inactive).

`O=C(O)c1c(Br)c(Br)c(Br)c(Br)c1C1c2ccc(O)cc2Oc2cc(O)ccc21`: the GI50 in test [1], in [2], in [3], in [4], in test [5] and in [6] was > 100 µM (inactive) throughout. Further, the GI50 in [7], in test [8], in test [10], in test [11], in test [12] and in test [13] was > 100 µM (inactive) in each case. Also, the GI50 is > 100 µM (inactive) in test [14]; > 100 µM (inactive) in test [15]; 0.232 µM (active) in test [16]; > 100 µM (inactive) in test [17]; > 100 µM (inactive) in [18]; > 100 µM (inactive) in test [19]. In addition, in test [20], the GI50 was > 100 µM (inactive).

As to `COC(=O)/C(=N/NC(N)=O)C(C(=O)C(=O)Nc1ccc(C)cc1)c1nc2ccc(C(=O)c3ccccc3)cc2nc1O` (stereo not drawn), the GI50 in test [1] is 67 µM (inactive); in test [2], > 100 µM (inactive); in test [3], > 100 µM (inactive); in test [4] it was 61.9 µM (inactive); in test [5], > 100 µM (inactive); in test [6], 91.4 µM (inactive). Moreover, the GI50 is > 100 µM (inactive) in [7]; > 100 µM (inactive) in [8]; > 100 µM (inactive) in test [9]; > 100 µM (inactive) in test [10]; 18.9 µM (inactive) in [11]; 66.7 µM (inactive) in test [13]. The GI50 in test [14] is > 100 µM (inactive); in test [15], 33.4 µM (inactive); in [16] it was 67.9 µM (inactive); in test [17], > 100 µM (inactive); in test [18], 75.2 µM (inactive); in test [19] it was > 100 µM (inactive). Also, the GI50 in test [20] is > 100 µM (inactive).
